# Read-outs that look alike come from different tables or passages of the source. Marks after values point to notes of the source that are not given here.
# Experiments:
# [1] = test system: cytosolic phospholipase B (PLB activity); experiment: Radiometric assay, cytosolic PLB activity; format: biochemical, Cryptococcus neoformans H99; conditions: modifier 10 mM (Triton X-100 0.1% w/v)
# Description: (§1) Fungal isolates and media. […] Isolate H99 was kindly supplied by Dr. Gary Cox (Duke University Medical Center, Durham, N.C., USA), and subcultured onto Sabouraud dextrose agar (SDA) at 30° C.
# (§2) Cellular disruption to prepare membrane and cytosolic fractions. The cell pellet from the preparation of the supernatant, above, was also frozen at −70° C. After washing twice with imidazole buffer, it was disrupted in the presence of a protease inhibitor cocktail (P 8215 for fungal and yeast cells; 4-(2-aminoethyl)benzenesulfonyl fluoride hydrochloride, 100 mM, 1,10-phenanthroline, 500 mM, pepstatin A, 2.2 mM, E-64, 1.4 mM; Sigma) in a MiniBeadbeater-8 Cell Disrupter (MBB-8; Daintree Scientific, Tasmania, Australia) for three cycles of 1 min, alternating with a 1 min cooling period on ice. The homogenate was centrifuged at 14,000 g for 15 min to obtain the membrane (pellet) and the cytosolic (supernatant) fractions.
# (§3) Radiometric assay method for phospholipases. Enzyme activities were measured as described previously in a final volume of 125 μL at 37° C. For the determination of secreted PLB activity, carrier dipalmitoyl phosphatidylcholine (DPPC, final concentration 800 μM) and 1,2-di[1-^14C] palmitoyl phosphatidylcholine (20,000 dpm) were dried under nitrogen and suspended in 125 mM imidazole acetate buffer (assay buffer, pH 4.0) by sonication using a Branson 450 sonifier. The reaction time was 22 min, using 1 μg total protein and PLB activity was determined by the rate of decrease of the radiolabelled PC substrate, with appearance of the label in free fatty acid. This assay also simultaneously allows for the determination of phospholipase A, C and D activities. These activities were measured by the appearance of radiolabel from PC in Lyso PC, diacylglycerol and phosphatidic acid, respectively.
# (§4) All reactions were terminated by adding 0.5 mL of chloroform:methanol (2:1 v/v). The reaction products were extracted by the method as disclosed in Bligh, E. C. and W. J. Dyer. 1959 ‘A rapid method of total lipid extraction and purification.’ Can. J. Biochem. Physiol. 37:911-917, separated by TLC and quantified as previously described. In the case of PLC activity, the TLC plates were developed in petroleum ether (BP 60-80° C.): diethyl ether: acetic acid (90:15:1, v/v/v) instead of chloroform:methanol:water (65:25:4, v/v/v).
# (§5) All experiments were carried out in duplicate or triplicate. The effects of pH on the various phospholipase activities were measured using 50 mM final concentration of imidazole-acetate buffer (pH range 3-5), MES buffer (pH range 6-8) and glycine buffer (pH 9-10). Controls for non-enzymic breakdown of substrates were included at all pH values. Cations, Triton X-100 and metal chelators were made up as stock solutions in water and diluted to the final concentration in the appropriate assay buffer.
# (§6) Preparation of inhibitors and use in assays. The following compounds were tested (for structures, see FIG. 2): compound 1, 1,12-bis(tributylphosphonium)dodecane dibromide (Fluka AG, Buchs, Switzerland); compound 2, 1,10-bis(tributylammonium)-decane dibromide; compound 3, 1,12-bis(tributylammonium)do-decane dibromide (both synthesised in-house); compound 4, 1,10-bis(trimethylammonium)decane dibromide [“decamethonium”] (Sigma, St. Louis Mo., USA). All compounds were prepared as stock solutions of 700 μM in assay buffer containing 5 mM EDTA, which was then diluted serially with buffer to obtain solutions of 70, 7, 0.7 and 0.07 μM. In each assay, 45 μL of these solutions was used, and the final volume of 125 μL was made up of substrate, enzyme and buffer. The radiometric assay was carried out as above.
# [2] = test system: cytosolic phospholipase B (LPL/LPTA activities); experiment: Radiometric assay, cytosolic LPL/LPTA activities; format: biochemical, Cryptococcus neoformans H99; conditions: modifier 10 mM (Triton X-100 0.1% w/v)
# Description: as §1, §2
# (§7) Secreted LPL and LPTA activities were measured simultaneously in a reaction mixture containing 1-[^14C]palmitoyl lyso-PC (25,000 dpm) and carrier lyso-PC (final concentration 200 μM) in assay buffer. The reaction time was […] with 1 μg of total protein and LPL activity was measured by the rate of loss of 1-[^14C]palmitoyl lyso-PC with release of radiolabelled fatty acids. LPTA activity was estimated from the rate of formation of radiolabelled PC.
# as §4, §5
# (§8) Preparation of inhibitors and use in assays. The following compounds were tested (for structures, see FIG. 2): compound 1, 1,12-bis(tributylphosphonium)dodecane dibromide (Fluka AG, Buchs, Switzerland); compound 2, 1,10-bis(tributylammonium)-decane dibromide; compound 3, 1,12-bis(tributylammonium)do-decane dibromide (both synthesised in-house); compound 4, 1,10-bis(trimethylammonium)decane dibromide [“decamethonium”] (Sigma, St. Louis Mo., USA). All compounds were prepared as stock solutions of 700 μM in assay buffer containing 5 mM EDTA, which was then diluted serially with buffer to obtain solutions of 70, 7, 0.7 and 0.07 μM. In each assay, 45 μL of these solutions was used, and the final volume of 125 μL was made up of substrate, enzyme and buffer. The radiometric assay was carried out as above. Inhibition was calculated as the percent of substrates (DPPC or Lyso-PC) remaining in the case of PLB and LPL activities, or of DPPC produced, in the case of the LPTA activity. The amounts converted, or produced, in the inhibitor-free control were normalised to 100%, and the inhibition calculated against it. All assays were done in triplicate.
# (§9) Under these conditions only PLB, LPL and LPTA activities (both secreted and cell-associated) were measured. Initially, compounds deemed to be potential inhibitors were assayed at 25 and 250 μM.
# [3] = test system: membrane-associated phospholipase B (PLB activity); experiment: Radiometric assay, membrane-associated PLB activity; format: biochemical, Cryptococcus neoformans H99; conditions: modifier 10 mM (Triton X-100 0.1% w/v)
# Description: as §1, §2, §3, §4, §5, §6
# [4] = test system: membrane-associated phospholipase B (LPL/LPTA activities); experiment: Radiometric assay, membrane-associated LPL/LPTA activities; format: biochemical, Cryptococcus neoformans H99; conditions: modifier 10 mM (Triton X-100 0.1% w/v)
# Description: as §1, §2, §7, §4, §5, §8, §9
# [5] = test system: secreted phospholipase B (PLB activity); experiment: Radiometric assay, secreted PLB activity; format: biochemical, Cryptococcus neoformans H99
# Description: as §1
# (§10) Preparation of supernatants containing secreted phospholipase activities. Isolate H99 was grown to confluence on SDA in 16 cm diameter Petri dishes for 72 h at 30° C. in air. Cells scraped from 10-20 dishes were washed sequentially with isotonic saline and imidazole buffer (10 mM imidazole, 2 mM CaCl2, 2 mM Mg Cl2, 56 mM D-Glucose, made up in isotonic saline, pH 5.5), resuspended in a volume of this buffer of about 10% of the cell volume, and incubated for 24 h at 37° C. The cell-free supernatant was separated by centrifugation as previously described and stored at −70° C.
# as §3, §4, §8
# (§11) Under these conditions only PLB, LPL and LPTA activities (both secreted and cell-associated) were measured. Initially, compounds deemed to be potential inhibitors were assayed at 25 and 250 μM. Those showing some inhibition were then also assayed at 2.5 and 0.25 μM.
# [6] = test system: secreted phospholipase B (LPL/LPTA activities); experiment: Radiometric assay, secreted LPL and LPTA activities (Lyso assay); format: biochemical, Cryptococcus neoformans H99
# Description: as §1, §10, §7, §4, §8, §11
# [7] = test system: Candida albicans ATCC 10231; experiment: Antifungal susceptibility testing, microdilution MIC; format: cell-based; conditions: Candida albicans, ATCC10231, read-out: MIC (μM) C. alb. (10231)
# Description: (§12) Antifungal susceptibility testing. The antifingal activity of the compounds was measured by a standard microdilution method. […] The fungal strains tested included Cryptococcus neoformans H99, Cryptococcus neoformans ATCC 90112 and Candida albicans ATCC 10231. All tests were performed in duplicate.
# (§13) A range of cationic compounds were assayed for antifungal activity in a standardised serial dilution sensitivity test against C. neoformans ([…]) and C. Albicans (ATCC 10231).
# [8] = test system: Cryptococcus neoformans ATCC 90112; experiment: as above; format: cell-based; conditions: Cryptococcus neoformans, ATCC90112, read-out: MIC (μM) Crypto. (ATCC 90112)
# Description: as §12, §13
# erythrocyte = format: cell-based; conditions: 37° C., 1 h
# Description: Human blood was collected in 10 mL Vacutainer tubes containing potassium-EDTA as anticoagulant. The blood from each vacutainer was transferred to a 50 mL centrifuge tube and the cells washed three times with calcium- and magnesium-free phosphate buffered saline (PBS) (Gibco) by centrifugation at 2000×g for 15 min. The third supernatant was clear and colourless. Cells were stored in PBS for up to two weeks. The cell suspension in PBS (0.5 mL) was mixed with a stock solution of test substance (0.5 mL) at the appropriate concentration (final erythrocyte concentration of approx. 0.5×10^9 per mL). The mixtures were incubated at 37° C. for 1 h with gentle shaking, then centrifuged at 2000×g for 10 min. The supernatant was diluted 10-fold with PBS and the optical density measured at 540 nm. The values for 0% and 100% lysis were determined by incubating cells with PBS or 0.1% Triton X-100 (in water), respectively. Assays were carried out in triplicate.
Compound,"Cytosolic PLB activity, percentage of the control ([1]; pH 4.0)","Cytosolic PLB activity, percentage of the control ([1]; pH 7.0)","Cytosolic LPL activity, percentage of the control ([2]; pH 4.0) [%]","Cytosolic LPTA activity, percentage of the control ([2]; pH 4.0) [%]","Cytosolic LPL activity, percentage of the control ([2]; pH 7.0) [%]","Cytosolic LPTA activity, percentage of the control ([2]; pH 7.0) [%]","Membrane-associated PLB activity, percentage of the control ([3]; pH 4.0) [%]","Membrane-associated PLB activity, percentage of the control ([3]; pH 7.0)","Membrane-associated LPL activity, percentage of the control ([4]; pH 4.0) [%]","Membrane-associated LPTA activity, percentage of the control ([4]; pH 4.0) [%]","Membrane-associated LPL activity, percentage of the control ([4]; pH 7.0)","Membrane-associated LPTA activity, percentage of the control ([4]; pH 7.0)",also measured
"O=C(O)CN(CCN(CC(=O)O)CC(=O)O)CC(=O)O [EDTA, ethylenediaminetetraacetic acid]",100%,100%,100,100,30,32,87,67%,98,94,96%,100%,–
[Ca+2] [Calcium],100%,591* %,100,100,236,206,83,533* %,100,96,166* %,140* %,–
[Cl][Fe]([Cl])[Cl] [FeCl3],79%,61%,81,78,22,21,92,2* %,97,75,61* %,45* %,–
"O=C(O)CN(CCOCCOCCN(CC(=O)O)CC(=O)O)CC(=O)O [EGTA, ethyleneglycoldiamine tetraacetic acid]",100%,163%,86,88,26,29,77,200%,100,90,100%,100%,–
Triton X-100,54* %,59%,62,39,0.9,0,19,33* %,71,52,4* %,2* %,–
"C[N+](C)(C)CCCCCCCCCCCC[N+](C)(C)C [1,12-Bis-(trimethylammonium)dodecane dibromide]",–,–,–,–,–,–,–,–,–,–,–,–,PLB assay (% inhibition) ([5]; 25 μM): 2%; PLB assay (% inhibition) ([5]; 250 μM): 3%; Lyso assay (% inhibition) LPL ([6]; 25 μM): 250 μM = 0% 25 μM = 0% 2.5 μM = n.d. 0.25 μM = n.d.; Lyso assay (% inhibition) LPTA ([6]; 25 μM): 4%; Lyso assay (% inhibition) LPL ([6]; 250 μM): 250 μM = 0% 25 μM = 0% 2.5 μM = n.d. 0.25 μM = n.d.; Lyso assay (% inhibition) LPTA ([6]; 250 μM): 5%; MIC [7]: 175 µM; MIC [8]: 175 µM; Haemolytic assay (%) (erythrocyte; 3.5 μM): 350 μM = 0% 175 μM = 0% 88 μM = 0% 35 μM = 0% 3.5 μM = 0%; Haemolytic assay (%) (erythrocyte; 35 μM): 350 μM = 0% 175 μM = 0% 88 μM = 0% 35 μM = 0% 3.5 μM = 0%; Haemolytic assay (%) (erythrocyte; 88 μM): 350 μM = 0% 175 μM = 0% 88 μM = 0% 35 μM = 0% 3.5 μM = 0%; Haemolytic assay (%) (erythrocyte; 175 μM): 350 μM = 0% 175 μM = 0% 88 μM = 0% 35 μM = 0% 3.5 μM = 0%; Haemolytic assay (%) (erythrocyte; 350 μM): 350 μM = 0% 175 μM = 0% 88 μM = 0% 35 μM = 0% 3.5 μM = 0%

# Source: patent US7947854B2, “Bis-cationic compounds and use thereof” (The University of Sydney, priority 2003, dated 2011)
